Test results published in article PMC8766476, “Repurposing the Pathogen Box compounds for identification of potent anti-malarials against blood stages of Plasmodium falciparum with PfUCHL3 inhibitory activity” (Scientific Reports, 2022).
Where two headings read alike, the source gives them in different places.

Target: T1, PfUCHL3 (Plasmodium falciparum, UniProt Q8IKM8)
T1 construct: gene UCHL3
Assay: fluorimetric Ub-AMC deubiquitinase assay with recombinant purified PfUCHL3, dose-response
Assay type: biochemical

T1 sequence (Q8IKM8 whole entry): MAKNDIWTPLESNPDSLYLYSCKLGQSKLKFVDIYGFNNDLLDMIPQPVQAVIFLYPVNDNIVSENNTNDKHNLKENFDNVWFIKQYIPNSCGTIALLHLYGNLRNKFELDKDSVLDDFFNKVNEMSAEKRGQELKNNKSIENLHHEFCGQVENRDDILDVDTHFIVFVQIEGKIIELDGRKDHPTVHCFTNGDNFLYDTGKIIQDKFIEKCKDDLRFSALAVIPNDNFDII

| SMILES | IC50 [µM] | IC50 (read-out: IC50) [µM] |
| --- | --- | --- |
| CC1COC2(CCN(c3nc(=O)c4cc(C(F)(F)F)cc([N+](=O)[O-])c4s3)CC2)O1 (centres unmarked) [compound 1, MMV676603] | 25.1 ± 1.8 |  |
| Cc1cc2nc(NC(=O)C(C)(C)C)nc(Cl)c2n1Cc1ccc(Cl)cc1 [compound 2, MMV688704] |  | 87.1 ± 1.75 |
